Assay results published in ChEMBL document CHEMBL1697723, “A predictive ligand-based Bayesian model for human drug-induced liver injury” (Drug Metab Dispos, 2010).
Where a name gives a salt, the structure may show the parent alone. Starred links: 1 amine or outer side, 2 acyl side, 3 side chain; linkers in the order of their positions; H or OH if unused. Positions of bridges follow the written chain, without caps; N, C: chain ends. Non-standard residues stand in square brackets, D forms with d. Residues, ends and D or L forms follow the SMILES beside them. Adda = CO[C@@H](Cc1ccccc1)[C@@H](C)/C=C(C)/C=C/[C@H](N[*:1])[C@H](C)C(=O)[*:2]; dAsp(3S-Me) = C[C@H](C(=O)[*:3])[C@@H](N[*:1])C(=O)[*:2]; d(γGlu) = O=C(O)[C@@H](CCC(=O)[*:2])N[*:1]; NMeDha = C=C(NC)C(=O)O

The molecules below were run on Hepatotoxicity (assay: Human drug-induced liver injury (DILI) modelling dataset from Ekins et al). Conditions: not given.
`Cc1ncc([N+](=O)[O-])n1CCO` [METRONIDAZOLE] was tested, and the Hepatotoxicity was “DILI positive (training set)”. With `CCCCNc1cc(C(=O)O)cc(S(N)(=O)=O)c1Oc1ccccc1` [BUMETANIDE] the Hepatotoxicity was “DILI positive (training set)”. For `CN1C[C@H](C(=O)N[C@]2(C)O[C@@]3(O)[C@@H]4CCCN4C(=O)[C@H](Cc4ccccc4)N3C2=O)C=C2c3cccc4[nH]cc(c34)C[C@H]21.CN1C[C@H](C(=O)N[C@]2(C)O[C@@]3(O)[C@@H]4CCCN4C(=O)[C@H](Cc4ccccc4)N3C2=O)C=C2c3cccc4[nH]cc(c34)C[C@H]21.O=C(O)C(O)C(O)C(=O)O` [ERGOTAMINE TARTRATE], the Hepatotoxicity was “DILI negative (test set)”. In the case of `Nc1ccc(S(=O)(=O)NC(=O)c2ccccc2)cc1` [SULFABENZAMIDE], the Hepatotoxicity is reported as “DILI negative (test set)”. `CCOc1ccc(NC(C)=O)cc1` [PHENACETIN] was tested, and the Hepatotoxicity was “DILI positive (training set)”. `Nc1nc2ccc(OC(F)(F)F)cc2s1` [RILUZOLE] was tested, and the Hepatotoxicity was “DILI positive (training set)”. For `COc1cccc2c1C(=O)c1c(O)c3c(c(O)c1C2=O)C[C@@](O)(C(=O)CO)C[C@@H]3O[C@H]1C[C@H](N)[C@@H](O)[C@H](C)O1` [EPIRUBICIN], the Hepatotoxicity was “DILI negative (test set)”. For `CC(C)Cc1ccc(CC(=O)O)cc1` [IBUFENAC], the Hepatotoxicity was “DILI positive (test set)”. With `CCO[C@@H](Cc1ccc(OCCN2c3ccccc3Oc3ccccc32)cc1)C(=O)O` [RAGAGLITAZAR] the Hepatotoxicity was “DILI negative (test set)”. `CC(=O)N[C@@H](CS)C(=O)O` [ACETYLCYSTEINE] was tested, and the Hepatotoxicity was “DILI negative (test set)”. With `CN1C(C(=O)Nc2nccs2)=C(O)c2ccccc2S1(=O)=O` [SUDOXICAM] the Hepatotoxicity was “DILI positive (test set)”. In the case of `CCOC(=O)CN[C@@H](C(=O)N1CC[C@H]1C(=O)NCc1ccc(/C(N)=N\O)cc1)C1CCCCC1` [XIMELAGATRAN], the Hepatotoxicity is reported as “DILI positive (test set)”. For `COc1c(N2CCNC(C)C2)c(F)cc2c(=O)c(C(=O)O)cn(C3CC3)c12` (stereo not drawn) [GATIFLOXACIN], the Hepatotoxicity was “DILI negative (training set)”. `COCC(=O)O[C@]1(CCN(C)CCCc2nc3ccccc3[nH]2)CCc2cc(F)ccc2[C@@H]1C(C)C` [MIBEFRADIL] was tested, and the Hepatotoxicity was “DILI negative (test set)”. `S=C=Nc1cccc2ccccc12` [1-NAPHTHYLISOTHIOCYANATE] was tested, and the Hepatotoxicity was “DILI positive (test set)”. With `CCCN(CCC)S(=O)(=O)c1ccc(C(=O)O)cc1` [PROBENECID] the Hepatotoxicity was “DILI negative (test set)”. With `CN[C@H](CC(C)C)C(=O)N[C@H]1C(=O)N[C@@H](CC(N)=O)C(=O)N[C@H]2C(=O)N[C@H]3C(=O)N[C@H](C(=O)N[C@H](C(=O)O)c4cc(O)cc(O)c4-c4cc3ccc4O)[C@H](O)c3ccc(c(Cl)c3)Oc3cc2cc(c3O[C@@H]2O[C@H](CO)[C@@H](O)[C@H](O)[C@H]2O[C@H]2C[C@](C)(N)[C@H](O)[C@H](C)O2)Oc2ccc(cc2Cl)[C@H]1O` [VANCOMYCIN] the Hepatotoxicity was “DILI positive (training set)”. In the case of `CN(C)CCCN1c2ccccc2Sc2ccc(Cl)cc21` [CHLORPROMAZINE], the Hepatotoxicity is reported as “DILI positive (training set)”. For `NC(=O)OCC(COC(N)=O)c1ccccc1` [FELBAMATE], the Hepatotoxicity was “DILI positive (training set)”. In the case of `Nc1ccc(Cc2ccc(N)cc2)cc1`, the Hepatotoxicity is reported as “DILI positive (test set)”. With `c1ccc2c(c1)Nc1ccccc1S2` [PHENOTHIAZINE] the Hepatotoxicity was “DILI positive (test set)”. `O=C1CC[C@@]2(O)[C@H]3Cc4ccc(O)c5c4[C@@]2(CCN3CC2CC2)[C@H]1O5` [NALTREXONE] was tested, and the Hepatotoxicity was “DILI positive (training set)”. For `CCC1(c2ccc(N)cc2)CCC(=O)NC1=O` (stereo not drawn) [AMINOGLUTETHIMIDE], the Hepatotoxicity was “DILI negative (training set)”. For `CCN(CC)CCNC(=O)c1cc(Cl)c(N)cc1OC.Cl`, the Hepatotoxicity was “DILI positive (training set)”. In the case of `O=C(O)/C=C\C(=O)O` [MALEIC ACID], the Hepatotoxicity is reported as “DILI positive (training set)”. In the case of `CC(C(=O)O)c1ccc2oc(-c3ccc(Cl)cc3)nc2c1` (stereo not drawn) [BENOXAPROFEN], the Hepatotoxicity is reported as “DILI positive (test set)”. With `CN(C)CCCC1(c2ccc(F)cc2)OCc2cc(C#N)ccc21` (stereo not drawn) [CITALOPRAM] the Hepatotoxicity was “DILI negative (training set)”. With `Clc1ccccc1C(c1ccccc1)(c1ccccc1)n1ccnc1` [CLOTRIMAZOLE] the Hepatotoxicity was “DILI negative (training set)”. With `NC[C@H]1O[C@H](O[C@H]2[C@H](O)[C@@H](O[C@H]3O[C@H](CO)[C@@H](O)[C@H](N)[C@H]3O)[C@H](N)C[C@@H]2N)[C@H](N)C[C@@H]1O` [TOBRAMYCIN] the Hepatotoxicity was “DILI positive (test set)”. With `CCOC(=O)[C@H](CCc1ccccc1)N[C@H]1CCc2ccccc2N(CC(=O)O)C1=O` [BENAZEPRIL] the Hepatotoxicity was “DILI negative (training set)”. For `CC(=N)S` [THIOACETAMIDE], the Hepatotoxicity was “DILI positive (training set)”. For `CC(C)(C)NC[C@H](O)COc1nsnc1N1CCOCC1.O=C(O)/C=C\C(=O)O` [TIMOLOL MALEATE], the Hepatotoxicity was “DILI positive (training set)”. With `CC[C@@H](CO)NC(=O)[C@@H]1C=C2c3cccc4c3c(cn4C)C[C@H]2N(C)C1.O=C(O)/C=C\C(=O)O` [METHYSERGIDE MALEATE] the Hepatotoxicity was “DILI negative (training set)”. `C=CCOC=O` [ALLYL FORMATE] was tested, and the Hepatotoxicity was “DILI positive (test set)”. For `CC1(COc2ccc(CC3SC(=O)NC3=O)cc2)CCCCC1` (stereo not drawn) [CIGLITAZONE], the Hepatotoxicity was “DILI positive (test set)”. With `CCC1(c2ccccc2)C(=O)NC(=O)N(C)C1=O` (stereo not drawn) [MEPHOBARBITAL] the Hepatotoxicity was “DILI positive (test set)”. With `C#C[C@]1(O)CC[C@H]2[C@@H]3CCc4cc(OC)ccc4[C@H]3CC[C@@]21C` [MESTRANOL] the Hepatotoxicity was “DILI positive (test set)”. For `COc1ccc(C[C@H](N)C(=O)N[C@H]2[C@@H](O)[C@H](n3cnc4c(N(C)C)ncnc43)O[C@@H]2CO)cc1` [PUROMYCIN], the Hepatotoxicity was “DILI positive (training set)”. For `C=C1C(=O)N[C@H](C)C(=O)N[C@@H](CC(C)C)C(=O)N[C@@H](C(=O)O)[C@H](C)C(=O)N[C@@H](CCCNC(=N)N)C(=O)N[C@@H](/C=C/C(C)=C/[C@H](C)[C@H](Cc2ccccc2)OC)[C@H](C)C(=O)N[C@@H](C(=O)O)CCC(=O)N1C` [MICROCYSTIN-LR] (R[Adda][d(γGlu)][NMeDha][dA]L[dAsp(3S-Me)]-OH; lactam N-7), the Hepatotoxicity was “DILI positive (test set)”. For `CC(=O)O.O=C(NCC1CCCCN1)c1cc(OCC(F)(F)F)ccc1OCC(F)(F)F` (stereo not drawn) [FLECAINIDE ACETATE], the Hepatotoxicity was “DILI positive (training set)”. In the case of `COc1cc(C(=O)NCc2ccc(OCCN(C)C)cc2)cc(OC)c1OC.Cl` [TRIMETHOBENZAMIDE HYDROCHLORIDE], the Hepatotoxicity is reported as “DILI positive (test set)”. For `COc1ccc2c(c1)c(CC(=O)O)c(C)n2C(=O)c1ccc(Cl)cc1` [INDOMETHACIN], the Hepatotoxicity was “DILI positive (training set)”. In the case of `CN1CCN(C2=Nc3cc(Cl)ccc3Nc3ccccc32)CC1` [CLOZAPINE], the Hepatotoxicity is reported as “DILI positive (training set)”. With `CN1CCN(C(c2ccccc2)c2ccccc2)CC1` [CYCLIZINE] the Hepatotoxicity was “DILI positive (test set)”. `N[C@H]1C(O)O[C@H](CO)[C@@H](O)[C@@H]1O` (stereo partly drawn) [GLUCOSAMINE] was tested, and the Hepatotoxicity was “DILI positive (training set)”. In the case of CISPLATIN, the Hepatotoxicity is reported as “DILI positive (test set)”. In the case of `CCN(CC)CCOc1ccc(C(=C(Cl)c2ccccc2)c2ccccc2)cc1` [CLOMIPHENE], the Hepatotoxicity is reported as “DILI positive (training set)”. `COc1cc2ncnc(Nc3ccc(F)c(Cl)c3)c2cc1OCCCN1CCOCC1` [GEFITINIB] was tested, and the Hepatotoxicity was “DILI positive (test set)”. For `O=C(c1ccc(OCCN2CCCCC2)cc1)c1c(-c2ccc(O)cc2)sc2cc(O)ccc12` [RALOXIFENE], the Hepatotoxicity was “DILI negative (training set)”. In the case of `CCC1(c2ccccc2)CCC(=O)NC1=O` (stereo not drawn) [GLUTETHIMIDE], the Hepatotoxicity is reported as “DILI positive (test set)”. In the case of `CC(NC(C)(C)C)C(=O)c1cccc(Cl)c1.Cl` (stereo not drawn) [BUPROPION HYDROCHLORIDE], the Hepatotoxicity is reported as “DILI negative (training set)”. `COCC(=O)O` [METHOXYACETIC ACID] was tested, and the Hepatotoxicity was “DILI positive (test set)”. For `CO[C@@]1(NC(=O)C2SC(=C(C(N)=O)C(=O)O)S2)C(=O)N2C(C(=O)O)=C(CSc3nnnn3C)CS[C@@H]21` (stereo partly drawn) [CEFOTETAN], the Hepatotoxicity was “DILI negative (test set)”. With `CC(=O)[C@]1(O)Cc2c(O)c3c(c(O)c2[C@@H](O[C@H]2C[C@H](N)[C@H](O)[C@H](C)O2)C1)C(=O)c1ccccc1C3=O.Cl` [IDARUBICIN HYDROCHLORIDE] the Hepatotoxicity was “DILI negative (training set)”. With `CC(C)NCC(O)c1cc(O)cc(O)c1.CC(C)NCC(O)c1cc(O)cc(O)c1.O=S(=O)(O)O` (stereo not drawn) [METAPROTERENOL SULFATE] the Hepatotoxicity was “DILI positive (training set)”. `CO[C@H]1C[C@H](O[C@H]2[C@H](C)[C@@H](O[C@@H]3O[C@H](C)C[C@H](N(C)C)[C@H]3OC(C)=O)[C@@H](C)C[C@@]3(CO3)C(=O)[C@H](C)[C@@H](OC(C)=O)[C@@H](C)[C@@H](C)OC(=O)[C@@H]2C)O[C@@H](C)[C@@H]1OC(C)=O` [TROLEANDOMYCIN] was tested, and the Hepatotoxicity was “DILI positive (test set)”. In the case of `CC(C(=O)O)c1ccc(N2CC=CC2)c(Cl)c1` (stereo not drawn) [PIRPROFEN], the Hepatotoxicity is reported as “DILI positive (test set)”. For `CC(C)NCC(O)COc1cccc2ccccc12` (stereo not drawn) [PROPRANOLOL], the Hepatotoxicity was “DILI negative (test set)”.

Same assay, conditions: Liver
With `Cc1ccc(-c2cc(C(F)(F)F)nn2-c2ccc(S(N)(=O)=O)cc2)cc1` [CELECOXIB] the Hepatotoxicity was “DILI positive (test set)”. For `CN[C@H]1CC[C@@H](c2ccc(Cl)c(Cl)c2)c2ccccc21` [SERTRALINE], the Hepatotoxicity was “DILI negative (training set)”. In the case of `Cc1c(F)c(N2CCNC(C)C2)cc2c1c(=O)c(C(=O)O)cn2C1CC1` (stereo not drawn) [GREPAFLOXACIN], the Hepatotoxicity is reported as “DILI positive (test set)”. For `CN/C(=N/CCSCc1nc[nH]c1C)NC#N` [CIMETIDINE], the Hepatotoxicity was “DILI negative (training set)”. `Nc1ccn([C@H]2CC[C@@H](CO)O2)c(=O)n1` [ZALCITABINE] was tested, and the Hepatotoxicity was “DILI negative (training set)”. In the case of `O=C(OCC(O)CO)c1ccccc1Nc1ccnc2cc(Cl)ccc12` (stereo not drawn) [GLAFENINE], the Hepatotoxicity is reported as “DILI positive (training set)”. `O=C1NC(=O)C(c2ccccc2)(c2ccccc2)N1` [PHENYTOIN] was tested, and the Hepatotoxicity was “DILI positive (training set)”. For `NCCc1ccc(O)c(O)c1` [DOPAMINE], the Hepatotoxicity was “DILI negative (training set)”. For `CN(C)C(=N)N=C(N)N` [METFORMIN], the Hepatotoxicity was “DILI negative (test set)”. In the case of `CNCCCN1c2ccccc2CCc2ccccc21` [DESIPRAMINE], the Hepatotoxicity is reported as “DILI negative (training set)”.
